In ChEMBL document CHEMBL1136035, “New Rev-transport inhibitor with anti-HIV activity from Valerianae Radix” (2002):

Test system: MT4
Test: Antiviral activity was determined by measurement of HIV-p24 antigen production in the supernatants of the infected MT-4 cell cultures with acommercially available HIV-antigen kit.
Format: functional, Homo sapiens

SMILES: CC(=O)OCC1=CO[C@@H](OC(=O)CC(C)C)[C@H]2C1=C[C@H](OC(=O)CC(C)C)[C@]21CO1 [VALTRATE]
- Inhibition: 44%
